Like-named read-outs stand apart in the source and are kept apart here.
Legend:
human V2 receptor = target: T1, human V2 receptor (Homo sapiens, UniProt P30518); assay: Cellular in vitro assay for determining vasopressin receptor activity, V2 receptor cell line (CHO, CRE-luciferase); assay type: cell-based; conditions: CHO cell line transfected with human V2 receptor, [Arg8]-vasopressin at EC50 concentration, read-out: IC50 hV2
T1 construct: expressed in transfected cells; host or cells: CHO K1 (ATCC) expressing firefly luciferase under a CRE-responsive promoter

human V1a receptor = target: T2, human V1a receptor (Homo sapiens, UniProt P37288); assay: Cellular in vitro assay for determining vasopressin receptor activity, V1a receptor cell line (CHO, aequorin luminescence); assay type: cell-based; conditions: for IC50: CHO cell line transfected with human V1a receptor, [Arg]-vasopressin at EC50 concentration, read-out: IC50 hV1a; for ratio IC50 hV2/hV1a: selectivity ratio IC50 hV2 / IC50 hV1a
T2 construct: expressed in transfected cells; host or cells: CHO K1 (ATCC), also stably transfected with a modified aequorin
In short: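 Antagonism is measured in stable CHO K1 transfectants coexpressing the Gαq-coupled receptor and a calcium-sensitive aequorin photoprotein. Agonist challenge uses [Arg]-vasopressin at EC50 after a 10-minute compound exposure; IC50 values come from the luminescence signal.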

T1 sequence (P30518 whole entry): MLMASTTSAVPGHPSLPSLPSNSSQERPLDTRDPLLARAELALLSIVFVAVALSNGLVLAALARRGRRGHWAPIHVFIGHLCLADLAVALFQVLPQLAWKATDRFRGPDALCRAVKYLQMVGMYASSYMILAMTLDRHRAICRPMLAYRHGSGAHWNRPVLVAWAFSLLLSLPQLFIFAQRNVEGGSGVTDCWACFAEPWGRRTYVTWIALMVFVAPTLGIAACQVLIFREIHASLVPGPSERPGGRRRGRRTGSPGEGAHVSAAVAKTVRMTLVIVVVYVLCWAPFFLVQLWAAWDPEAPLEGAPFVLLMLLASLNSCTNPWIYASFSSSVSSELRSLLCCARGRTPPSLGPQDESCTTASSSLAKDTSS
T2 sequence (P37288 whole entry): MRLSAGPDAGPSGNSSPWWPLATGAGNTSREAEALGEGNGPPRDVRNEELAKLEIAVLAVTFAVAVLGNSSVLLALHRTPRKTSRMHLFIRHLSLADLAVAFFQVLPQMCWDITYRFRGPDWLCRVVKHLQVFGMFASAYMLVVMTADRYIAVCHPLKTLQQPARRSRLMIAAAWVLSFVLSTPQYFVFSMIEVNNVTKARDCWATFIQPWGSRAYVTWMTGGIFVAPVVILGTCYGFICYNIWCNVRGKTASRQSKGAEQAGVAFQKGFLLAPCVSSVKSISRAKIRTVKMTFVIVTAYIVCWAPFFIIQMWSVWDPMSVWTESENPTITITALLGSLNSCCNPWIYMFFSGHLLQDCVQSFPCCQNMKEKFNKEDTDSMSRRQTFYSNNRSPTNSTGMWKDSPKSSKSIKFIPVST

O=C(c1cccc(Cl)c1-n1cnc(Cn2nc(-c3ccc(Cl)cc3)n(C[C@H](O)C(F)(F)F)c2=O)n1)N1CCC(C(F)(F)F)C1 (mixture of isomers) [Example 386, 5-(4-Chlorophenyl)-2-{[1-(2-chloro-6-{[3-(trifluoromethyl)pyrrolidin-1-yl]carbonyl}phenyl)-1H-1,2,4-triazol-3-yl]methyl}-4-[(2S)-3,3,3-trifluoro-2-hydroxypropyl]-2,4-dihydro-3H-1,2,4-triazol-3-one]
IC50 (human V2 receptor; 3 hours): 4150 nM
IC50 (human V1a receptor): 170 nM
ratio IC50 hV2/hV1a (human V1a receptor): 24.4

NC(CNC(=O)c1cccc(Cl)c1-n1cnc(Cn2nc(-c3ccc(Cl)cc3)n(C[C@H](O)C(F)(F)F)c2=O)n1)C(F)(F)F (mixture of isomers) [Example 390, N-[2-Amino-3,3,3-trifluoropropyl]-3-chloro-2-[3-({3-(4-chlorophenyl)-5-oxo-4-[(2S)-3,3,3-trifluoro-2-hydroxypropyl]-4,5-dihydro-1H-1,2,4-triazol-1-yl}methyl)-1H-1,2,4-triazol-1-yl]benzamide]
IC50 (human V2 receptor; 3 hours): 530 nM
IC50 (human V1a receptor): 69 nM
ratio IC50 hV2/hV1a (human V1a receptor): 7.7

O=C(NC1CC1(F)F)c1cccc(Cl)c1-n1cnc(Cn2nc(-c3ccc(Cl)cc3)n(C[C@@H](O)C(F)(F)F)c2=O)n1 (mixture of isomers) [Example 395, 3-Chloro-2-[3-({3-(4-chlorophenyl)-5-oxo-4-[(2R)-3,3,3-trifluoro-2-hydroxypropyl]-4,5-dihydro-1H-1,2,4-triazol-1-yl}methyl)-1H-1,2,4-triazol-1-yl]-N-[2,2-difluorocyclopropyl]benzamide]
IC50 (human V2 receptor; 3 hours): 5150 nM
IC50 (human V1a receptor): 82 nM
ratio IC50 hV2/hV1a (human V1a receptor): 62.8

NC(=O)C1CCCN1C(=O)c1cccc(Cl)c1-n1cnc(Cn2nc(-c3ccc(Cl)cc3)n(C[C@@H](O)C(F)(F)F)c2=O)n1 (mixture of isomers) [Example 400, 1-{3-Chloro-2-[3-({3-(4-chlorophenyl)-5-oxo-4-[(2R)-3,3,3-trifluoro-2-hydroxypropyl]-4,5-dihydro-1H-1,2,4-triazol-1-yl}methyl)-1H-1,2,4-triazol-1-yl]benzoyl}-prolinamide]
IC50 (human V2 receptor): 32000 nM
IC50 (human V1a receptor): 570 nM
ratio IC50 hV2/hV1a (human V1a receptor): 56.1

O=C(NC1CC1F)c1cccc(Cl)c1-n1cnc(Cn2nc(-c3ccc(Cl)cc3)n(C[C@@H](O)C(F)(F)F)c2=O)n1 (mixture of isomers) [Example 406, 3-Chloro-2-[3-({3-(4-chlorophenyl)-5-oxo-4-[(2R)-3,3,3-trifluoro-2-hydroxypropyl]-4,5-dihydro-1H-1,2,4-triazol-1-yl}methyl)-1H-1,2,4-triazol-1-yl]-N-[2-fluorocyclopropyl]benzamide]
IC50 (human V2 receptor): 10100 nM
IC50 (human V1a receptor): 26 nM
ratio IC50 hV2/hV1a (human V1a receptor): 390.4

NC(CNC(=O)c1cccc(Cl)c1-n1cnc(Cn2nc(-c3ccc(Cl)cc3)n(C[C@@H](O)C(F)(F)F)c2=O)n1)C(F)(F)F (mixture of isomers) [Example 408, N-[2-Amino-3,3,3-trifluoropropyl]-3-chloro-2-[3-({3-(4-chlorophenyl)-5-oxo-4-[(2R)-3,3,3-trifluoro-2-hydroxypropyl]-4,5-dihydro-1H-1,2,4-triazol-1-yl}methyl)-1H-1,2,4-triazol-1-yl]benzamide]
IC50 (human V2 receptor): 8500 nM
IC50 (human V1a receptor): 400 nM
ratio IC50 hV2/hV1a (human V1a receptor): 21.3

O=C(NC1CC1(F)F)c1cccc(C(F)(F)F)c1-n1cnc(Cn2nc(-c3ccc(Cl)cc3)n(C[C@H](O)C(F)(F)F)c2=O)n1 (mixture of isomers) [Example 420, 2-[3-({3-(4-Chlorophenyl)-5-oxo-4-[(2S)-3,3,3-trifluoro-2-hydroxypropyl]-4,5-dihydro-1H-1,2,4-triazol-1-yl}methyl)-1H-1,2,4-triazol-1-yl]-N-[2,2-difluorocyclopropyl]-3-(trifluoromethyl)benzamide]
IC50 (human V2 receptor): 1150 nM
IC50 (human V1a receptor): 58.5 nM
ratio IC50 hV2/hV1a (human V1a receptor): 19.7

NC(CNC(=O)c1ncccc1-n1cnc(Cn2nc(-c3ccc(Cl)cc3)n(C[C@H](O)C(F)(F)F)c2=O)n1)C(F)(F)F (mixture of isomers) [Example 429, N-[(2R)-2-Amino-3,3,3-trifluoropropyl]-3-[3-({3-(4-chlorophenyl)-5-oxo-4-[(2S)-3,3,3-trifluoro-2-hydroxypropyl]-4,5-dihydro-1H-1,2,4-triazol-1-yl}methyl)-1H-1,2,4-triazol-1-yl]pyridine-2-carboxamide]
IC50 (human V2 receptor): 1400 nM
IC50 (human V1a receptor): 51 nM
ratio IC50 hV2/hV1a (human V1a receptor): 27.5

O=C(NCC(O)C(F)(F)F)c1ncccc1-n1cnc(Cn2nc(-c3ccc(Cl)cc3)n(C[C@H](O)C(F)(F)F)c2=O)n1 (mixture of isomers) [Example 430, 3-[3-({3-(4-Chlorophenyl)-5-oxo-4-[(2S)-3,3,3-trifluoro-2-hydroxypropyl]-4,5-dihydro-1H-1,2,4-triazol-1-yl}methyl)-1H-1,2,4-triazol-1-yl]-N-[3,3,3-trifluoro-2-hydroxypropyl]pyridine-2-carboxamide]
IC50 (human V2 receptor): 710 nM
IC50 (human V1a receptor): 44.5 nM
ratio IC50 hV2/hV1a (human V1a receptor): 16.0

O=C(NC1CC1(F)F)c1ncccc1-n1cnc(Cn2nc(-c3ccc(Cl)cc3)n(C[C@H](O)C(F)(F)F)c2=O)n1 (mixture of isomers) [Example 436, 3-[3-({3-(4-Chlorophenyl)-5-oxo-4-[(2S)-3,3,3-trifluoro-2-hydroxypropyl]-4,5-dihydro-1H-1,2,4-triazol-1-yl}methyl)-1H-1,2,4-triazol-1-yl]-N-[2,2-difluorocyclopropyl]pyridine-2-carboxamide]
IC50 (human V2 receptor): 825 nM
IC50 (human V1a receptor): 25 nM
ratio IC50 hV2/hV1a (human V1a receptor): 33.0

CC1CN(C(=O)c2ncccc2-n2cnc(Cn3nc(-c4ccc(Cl)cc4)n(C[C@H](O)C(F)(F)F)c3=O)n2)CCO1 (mixture of isomers) [Example 440, 5-(4-Chlorophenyl)-2-{[1-(2-{[2-methylmorpholin-4-yl]carbonyl}pyridin-3-yl)-1H-1,2,4-triazol-3-yl]methyl}-4-[(2S)-3,3,3-trifluoro-2-hydroxypropyl]-2,4-dihydro-3H-1,2,4-triazol-3-one]
IC50 (human V2 receptor): 4550 nM
IC50 (human V1a receptor): 100 nM
ratio IC50 hV2/hV1a (human V1a receptor): 45.5

NC(=O)C1CCCN1C(=O)c1ncccc1-n1cnc(Cn2nc(-c3ccc(Cl)cc3)n(C[C@H](O)C(F)(F)F)c2=O)n1 (mixture of isomers) [Example 441, 1-({3-[3-({3-(4-Chlorophenyl)-5-oxo-4-[(2S)-3,3,3-trifluoro-2-hydroxypropyl]-4,5-dihydro-1H-1,2,4-triazol-1-yl}methyl)-1H-1,2,4-triazol-1-yl]pyridin-2-yl}carbonyl)-prolinamide]
IC50 (human V2 receptor): 6050 nM
IC50 (human V1a receptor): 175 nM
ratio IC50 hV2/hV1a (human V1a receptor): 34.6

O=C(c1ncccc1-n1cnc(Cn2nc(-c3ccc(Cl)cc3)n(C[C@H](O)C(F)(F)F)c2=O)n1)N1CCC(O)(C(F)(F)F)C1 (mixture of isomers) [Example 442, 5-(4-Chlorophenyl)-2-{[1-(2-{[3-hydroxy-3-(trifluoromethyl)pyrrolidin-1-yl]carbonyl}pyridin-3-yl)-1H-1,2,4-triazol-3-yl]methyl}-4-[(2S)-3,3,3-trifluoro-2-hydroxypropyl]-2,4-dihydro-3H-1,2,4-triazol-3-one]
IC50 (human V2 receptor): 4650 nM
IC50 (human V1a receptor): 190 nM
ratio IC50 hV2/hV1a (human V1a receptor): 24.5

O=C(c1ncccc1-n1cnc(Cn2nc(-c3ccc(Cl)cc3)n(C[C@H](O)C(F)(F)F)c2=O)n1)N1CCOC(C(F)(F)F)C1 (mixture of isomers) [Example 444, 5-(4-Chlorophenyl)-4-[(2S)-3,3,3-trifluoro-2-hydroxypropyl]-2-{[1-(2-{[2-(trifluoromethyl)morpholin-4-yl]carbonyl}pyridin-3-yl)-1H-1,2,4-triazol-3-yl]methyl}-2,4-dihydro-3H-1,2,4-triazol-3-one]
IC50 (human V2 receptor): 7850 nM
IC50 (human V1a receptor): 120 nM
ratio IC50 hV2/hV1a (human V1a receptor): 65.4

O=C(c1ncccc1-n1cnc(Cn2nc(-c3ccc(Cl)cc3)n(C[C@H](O)C(F)(F)F)c2=O)n1)N1CCNC(C(F)(F)F)C1 (mixture of isomers) [Example 448, 5-(4-Chlorophenyl)-4-[(2S)-3,3,3-trifluoro-2-hydroxypropyl]-2-{[1-(2-{[3-(trifluoromethyl)piperazin-1-yl]carbonyl}pyridin-3-yl)-1H-1,2,4-triazol-3-yl]methyl}-2,4-dihydro-3H-1,2,4-triazol-3-one]
IC50 (human V2 receptor): 2700 nM
IC50 (human V1a receptor): 165 nM
ratio IC50 hV2/hV1a (human V1a receptor): 16.4

O=C(c1ncccc1-n1cnc(Cn2nc(-c3ccc(Cl)cc3)n(C[C@H](O)C(F)(F)F)c2=O)n1)N1CCC(C(F)(F)F)C1 (mixture of isomers) [Example 449, 5-(4-Chlorophenyl)-4-[(2S)-3,3,3-trifluoro-2-hydroxypropyl]-2-{[1-(2-{[3-(trifluoromethyl)pyrrolidin-1-yl]carbonyl}pyridin-3-yl)-1H-1,2,4-triazol-3-yl]methyl}-2,4-dihydro-3H-1,2,4-triazol-3-one]
IC50 (human V2 receptor): 3350 nM
IC50 (human V1a receptor): 200 nM
ratio IC50 hV2/hV1a (human V1a receptor): 16.8

NC(=O)C1CCCN1C(=O)c1ncccc1-n1cnc(Cn2nc(-c3ccc(Cl)cc3)n(C[C@@H](O)C(F)(F)F)c2=O)n1 (mixture of isomers) [Example 467, 1-({3-[3-({3-(4-chlorophenyl)-5-oxo-4-[(2R)-3,3,3-trifluoro-2-hydroxypropyl]-4,5-dihydro-1H-1,2,4-triazol-1-yl}methyl)-1H-1,2,4-triazol-1-yl]pyridin-2-yl}carbonyl)-prolinamide]
IC50 (human V2 receptor): 32000 nM
IC50 (human V1a receptor): 620 nM
ratio IC50 hV2/hV1a (human V1a receptor): 51.6

— patent publication US11173151B2, “Substituted triazole derivatives and uses thereof” (BAYER AKTIENGESELLSCHAFT, priority 2017, dated 2021)
